Tested on: hypothalamic-pituitary-adrenal axis
Test: 24-hour urinary free cortisol (UFC)
Format: in vivo, human
Details: 50 mg every 6 hours for 9 days; for Urinary Free Cortisol (24-hour UFC): mean±SD, n=16, normal 3.5-45
Source text: Urine cortisol and other surrogate biochemical markers of HPA activation: This includes all tests currently available or subsequently developed that may be used to evaluate the effects of GRA dose and schedule on the HPA axis. Normal 24-hour urine free cortisol (UFC) levels range from […] when measured in most tandem mass spectrometry assays. Values are higher when measured by immunoassays because of cross-reactivity with the antibodies used in those assays with other steroids that are structurally similar to cortisol. Measurement of UFC by tandem mass spectrometry is the preferred method to assess the effect of GRAs on the HPA axis for three reasons: 1. ease of collection, 2. specificity of the assay (it measures only cortisol) and 3. the well-established range of values seen in physiologic stress, or Pseudo-Cushing's syndrome, which is 1-3 times the upper limit of the normal reference range. However, other biochemical tests may be used as surrogate biochemical markers of the HPA axis, including, but not limited to measurement of serum or salivary cortisol at multiple time-points throughout a 24 hour period, including both the day and night, which is expressed as either the mean value or the area under the curve. Normal ranges for all cortisol assays and 24-hour assessments will vary depending on the assay technique, and reagents, and must be used based on locally-determined values, or values provided by the manufacturer of an assay kit. The results obtained from any of these assays are then used to determine whether the dosage of the one or more GR antagonists need to be adjusted upwards or downwards so as to maintain 24-hour serum or urinary free cortisol levels at no more than about two or three times the upper level of the normal range, respectively.
Initially, 19 subjects underwent randomization. […]
To reduce potential variability associated with estrogen in premenopausal women, testing was performed in the early follicular phase (days 1-7 of menstrual cycle). Baseline height and weight were measured after an overnight fast. […]

CC#C[C@]1(O)CC[C@H]2[C@@H]3CCC4=CC(=O)CCC4=C3[C@@H](c3ccc(N(C)C)cc3)C[C@@]21C [Mifepristone, 11beta-[p-(dimethylamino)phenyl]-17alpha-(1-propynl)estra-4,9-dien-17beta-ol-3-one]
Urinary Free Cortisol (24-hour UFC): 74.1 ± 75.3 μg/24 hr
Urinary Free Cortisol (24-hour UFC) (listed as mifepristone): 74.1±75.3 μg/24 hr
Post-treatment mean UFC in the 8 subjects above the normal limit (subgroup of 8 subjects): 120.4±83.9 μg/24 hr

Source: patent US20220288091A1, “Method for Improving Insulin Sensitivity” (priority 2019, published 2022)
